Legend:
[1] = (§1) Inhibition of [20-3H]phorbol-12,13-dibutyrate (PDBU) binding to protein kinase-C (PKC alpha, beta and gamma) from mouse brain
[2] = organism: Mus musculus; test: as §1

| Ki [1] | ED50 [2] | SMILES |
| --- | --- | --- |
| 500 nM |  | CCCCCCCCCCCCCC(=O)OC[C@H](CO)OC(C)=O |
| 2900 nM |  | CCCCCCCCCCCCCC(=O)O[C@H]1[C@H](CO)OC(=O)[C@@H]1CCCCCCCCCCCC |
|  | > 200000 nM | CCCCCCCCCCCCCC(=O)O[C@H]1C(CCCCCCCCCCCC)C(=O)O[C@@H]1CO (stereo partly drawn) |
| 5300 nM |  | CCCCCCCCCCCCCC(=O)O[C@H]1CC(=O)O[C@@H]1CO |
| 600 nM |  | CCCCCCCCCCCCCC[C@H]1C(=O)O[C@@H](CO)[C@@H]1OC(C)=O |
| 1100 nM |  | CCCCCCCCCCCC[C@H]1C(=O)O[C@@H](CO)[C@@H]1OC(C)=O |
|  | > 100000 nM | CCCCCCCCCCCCC1C(=O)O[C@H](CO)[C@H]1OC(C)=O (stereo partly drawn) |
| 2500 nM |  | CCCCCCCCCCCCCC(=O)O[C@@H]1CC(=O)O[C@H]1CO |

— ChEMBL document CHEMBL1159162, “Conformationally constrained analogues of diacylglycerol (DAG). 3. Interaction of -alkyl--lactones with protein kinase C (PK-C)” (Bioorg Med Chem Lett, 1993)
